Source: patent US20160061820A1, “IN VITRO BILIARY EXCRETION ASSAY” (HUREL CORPORATION, priority 2014, published 2016)
Read-outs that look alike come from different tables or passages of the source.

Key:
bile canaliculi = test: Disruption of canaliculi, CDFDA staining (Example 3); assay type: cell-based, human; details: 5 uM CDFDA with 10 uM LatA, 20 min
Description: In the second method, the cultures were exposed to buffer containing latranculin A (LatA). The LatA functions to disrupt microfilament organization, a key step in tight junction formation, which allows bile present in the canaliculi to escape. Cells were first washed twice in HBSS buffer with Ca+. Cells were then incubated with 5 uM CDFDA in HBSS buffer with Ca+ and 10 uM LatA for 20 min. Cells were then washed two times in HBSS buffer with Ca+.

in vitro [1] = details: hepatocytes
Description: (§1) The single well method of assessing biliary clearance of the invention was used.
(§2) A coculture was exposed to each tested compound in culture media at the indicated concentration for 20 minutes. The media was then removed (collection #1) and stored for analysis of remaining compound. The cultures were washed twice with buffer solution (collections #2 and #3) and each wash solution was stored for analysis of remaining taurcholate. […] This releases taurcholate accumulated in the bile of the canaliculi. At the end of the incubation period the culture media was collected (collection #4). The cells were then exposed to deionized water which functions to disrupt the cellular membrane and release the compound accumulated in the cellular compartment (collection #5). Because any compound present in the canaliculi was already collected in collection #4, collection #5 contains any compound present in the cell but not including any present in the canaliculi.
(§3) In teach figure the measured amount of compound in bile and the measured amount of compound in the cytoplasm are presented together as two parts of a single bar on the left side of the figure. The measured value for the bile is also shown as a bar on the right side of the figure. Comparing the height of the right bar (bile) to the height of the composite left bar (total of cytoplasm+bile) allows visulation of the portion of the compound that accumulated in the bile. […] Equation 2 was used to calculate the BEI for each compound in this system. The data were used to calculate the Biliary Clearance (Equation 1) and BEI (Equation 2) for each tested compound.

in vitro [2] = details: rat, hepatocytes
Description: as §1
(§4) The media was then removed (collection #1) and stored for analysis of remaining compound. […] At the end of the incubation period the culture media was collected (collection #4). The cells were then exposed to deionized water which functions to disrupt the cellular membrane and release the compound accumulated in the cellular compartment (collection #5). Because any compound present in the canaliculi was already collected in collection #4, collection #5 contains any compound present in the cell but not including any present in the canaliculi. […] The data is presented in FIG. 9-13 using the same format as used in FIGS. 4-8.
(§5) Equation 2 was used to calculate the BEI for each compound in this system.

[3] = tested on: cryopreserved human hepatocytes in sandwich culture; details: cited from earlier work
[4] = tested on: cultured human hepatocytes; test: in vitro
Description: as §1, §2, §3

cultured rat hepatocytes = test: in vitro
Description: as §1, §4, §5

[5] = Lundquist (2014); cited from earlier work
[6] = tested on: primary human hepatocytes grown in a hepatocyte-stromal cell coculture
Description: (§6) Accumulation in the bile and accumulation in the cell were measured separately in a single well of a coculture plate. The measured values for bile accumulation and cell accumulation are shown as separately shaded portions of a single bar. The error bars represent a single standard deviation.
as §6, with “FIG. 18 compares the results of three independent experiments measuring biliary uptake of pravastatin by primary human hepatocytes grown in a hepatocyte-stromal cell coculture. Accumulation” for “Accumulation”

[7] = Bi et al. (2006), two culture method

## C/C1=C/C(=O)O[C@@H]2C[C@@H](CC[C@H](C)/C=C\C=C\CC1)O[C@@](O)([C@@H]1CSC(=O)N1)C2 [LatA, latrunculin A]
Bile canaliculi
  CDA staining of canaliculi: no CDA staining was apparent

## C[C@H]1O[C@@H](O[C@H]2[C@@H](O)C[C@H](O[C@H]3[C@@H](O)C[C@H](O[C@H]4CC[C@@]5(C)[C@H](CC[C@@H]6[C@@H]5C[C@@H](O)[C@]5(C)[C@@H](C7=CC(=O)OC7)CC[C@]65O)C4)O[C@@H]3C)O[C@@H]2C)C[C@H](O)[C@@H]1O [digoxin]
In vitro [1]; human
  microsomal CLint: 0.4 µL/min/mg
In vitro [2]
  microsomal CLint: 0.31 ± 0.02 µL/min/mg
[3]; [7]
  Uptake Rate: 0.7-1.5 pmol/min/mg protein

## C[C@]12CC[C@@H]3c4ccc(O)cc4CC[C@H]3[C@@H]1CC[C@@H]2O[C@@H]1O[C@H](C(=O)O)[C@@H](O)[C@H](O)[C@H]1O [estradiol-glucuronide]
[4]
  microsomal CLint: 0.3 µL/min/mg
Cultured rat hepatocytes; rat, hepatocytes
  Rat In Vitro PK Intrinsic CLint, biliary: 2.7 ± 0.1 μl/min/mg protein
[3]; [7]
  Biliary Excretion Index (BEI): 37%
[3]
  Uptake Rate: 2.2 pmol/min/mg protein
  microsomal CLint: 1.8 µL/min/mg

## CC[C@H](C)C(=O)O[C@H]1C[C@H](O)C=C2C=C[C@H](C)[C@H](CC[C@@H](O)C[C@@H](O)CC(=O)O)[C@H]21 [pravastatin]
In vitro [1]; human
  microsomal CLint: 0.38 µL/min/mg
In vitro [2]
  microsomal CLint: 0.29 ± 0.02 µL/min/mg

## CC(C)c1nc(N(C)S(C)(=O)=O)nc(-c2ccc(F)cc2)c1/C=C/[C@@H](O)C[C@@H](O)CC(=O)O [rosuvastatin]
In vitro [1]; human
  microsomal CLint: 6 µL/min/mg
In vitro [2]
  microsomal CLint: 3.5 ± 0.3 µL/min/mg
Cultured rat hepatocytes; rat
  Fold Difference: 0.6
[5]
  Rat In Vivo PK In Vivo CLbiliary: 48.0 ± 10.8 mL/min/kg
[3]; [7]
  Biliary Excretion Index (BEI): 43-58%
  Uptake Rate: 15-26 pmol/min/mg protein

## C[C@H](CCC(=O)NCCS(=O)(=O)O)[C@H]1CC[C@H]2[C@@H]3[C@H](O)C[C@@H]4C[C@H](O)CC[C@]4(C)[C@H]3C[C@H](O)[C@]12C [taurocholate, taurocholic acid]
In vitro [1]
  microsomal CLint: 23 µL/min/mg
Cultured rat hepatocytes; rat hepatocyte coculture, compound 2 uM (pravastatin 5 uM), 20 min, latrunculin 5 uM 30 min
  BEI: 60%
Cultured rat hepatocytes; scaled from Clint,bile with 200 mg protein/g liver and 40 g liver/kg
  Rat In Vitro PK Predicted CLbiliary: 67.1 ± 4.8 mL/min/kg
[6]; Exp. 1
  Bile accumulation, Mean: 541.90
[6]; Exp. 2
  Bile accumulation, Mean: 556.08
[6]; Exp. 3
  Bile accumulation, Mean: 543.31
